Test results: publication PMC7265341, “Quantifying CDK inhibitor selectivity in live cells” (Nature Communications, 2020)
Read-outs that look alike come from different tables or passages of the source.

Legend:
[1] = molecular target: CDK15/Cyclin Y (Homo sapiens, UniProt Q96Q40); assay: NanoBRET live-cell target engagement, NanoLuc-CDK15/Cyclin Y in HEK-293; format: binding; conditions: CDK15/Y; for IC50: read-out: IC50
[2] = molecular target: CDK4/Cyclin D1 (Homo sapiens, UniProt P11802); assay: NanoBRET live-cell target engagement, NanoLuc-CDK4/Cyclin D1 in HEK-293; format: binding; conditions: CDK4/D1; for IC50: read-out: IC50
[3] = molecular target: CDK8/Cyclin C (Homo sapiens, UniProt P49336); assay: NanoBRET live-cell target engagement, NanoLuc-CDK8/Cyclin C in HEK-293; format: binding; conditions: CDK8/C
CDK8/Cyclin C, sequence (P49336 whole entry): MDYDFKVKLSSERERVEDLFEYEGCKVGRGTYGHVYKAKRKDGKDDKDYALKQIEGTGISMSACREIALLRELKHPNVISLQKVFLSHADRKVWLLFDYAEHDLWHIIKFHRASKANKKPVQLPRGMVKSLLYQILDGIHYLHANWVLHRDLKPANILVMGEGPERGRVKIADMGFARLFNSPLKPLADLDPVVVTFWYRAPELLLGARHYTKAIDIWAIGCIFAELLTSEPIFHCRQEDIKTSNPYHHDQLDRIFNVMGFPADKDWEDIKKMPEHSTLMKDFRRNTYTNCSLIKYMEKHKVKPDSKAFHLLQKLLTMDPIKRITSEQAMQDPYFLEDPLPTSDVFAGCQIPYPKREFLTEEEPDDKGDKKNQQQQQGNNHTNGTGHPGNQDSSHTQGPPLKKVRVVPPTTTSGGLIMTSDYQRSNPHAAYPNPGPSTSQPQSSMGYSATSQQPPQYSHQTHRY
CDK8/Cyclin C, sequence (P24863 whole entry partner): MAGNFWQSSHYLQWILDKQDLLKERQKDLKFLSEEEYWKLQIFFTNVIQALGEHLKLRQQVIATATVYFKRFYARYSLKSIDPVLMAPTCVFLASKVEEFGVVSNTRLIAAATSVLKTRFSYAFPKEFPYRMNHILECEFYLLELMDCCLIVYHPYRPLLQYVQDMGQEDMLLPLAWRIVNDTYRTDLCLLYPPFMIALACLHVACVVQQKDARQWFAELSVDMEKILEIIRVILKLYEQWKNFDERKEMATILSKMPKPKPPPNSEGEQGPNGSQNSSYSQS

[4] = molecular target: CDK19/Cyclin C (Homo sapiens, UniProt Q9BWU1); assay: NanoBRET live-cell target engagement, NanoLuc-CDK19/Cyclin C in HEK-293
CDK19/Cyclin C, sequence (Q9BWU1 whole entry): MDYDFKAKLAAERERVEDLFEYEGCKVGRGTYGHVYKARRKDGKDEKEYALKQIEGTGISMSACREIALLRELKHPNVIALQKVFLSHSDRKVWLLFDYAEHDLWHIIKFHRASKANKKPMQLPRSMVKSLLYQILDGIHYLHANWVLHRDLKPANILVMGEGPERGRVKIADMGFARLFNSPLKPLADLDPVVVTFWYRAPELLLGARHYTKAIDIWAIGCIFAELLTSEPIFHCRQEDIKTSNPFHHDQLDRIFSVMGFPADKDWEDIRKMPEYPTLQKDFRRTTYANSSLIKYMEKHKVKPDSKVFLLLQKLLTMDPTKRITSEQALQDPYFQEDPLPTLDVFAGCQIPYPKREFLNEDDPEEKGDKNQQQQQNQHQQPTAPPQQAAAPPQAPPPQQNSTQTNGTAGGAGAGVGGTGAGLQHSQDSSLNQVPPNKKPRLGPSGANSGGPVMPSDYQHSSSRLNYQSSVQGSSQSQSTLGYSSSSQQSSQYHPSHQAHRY
CDK19/Cyclin C, sequence (P24863 whole entry partner): as the sequence (P24863 whole entry partner) above

[5] = molecular target: CDK17/Cyclin Y (Homo sapiens, UniProt Q00537); assay: NanoBRET live-cell target engagement, CDK17-NanoLuc/Cyclin Y in HEK-293; format: binding; conditions: CDK17/Y; for IC50: read-out: IC50
[6] = molecular target: T1, CDK11A/Cyclin L2 (Homo sapiens, UniProt Q9UQ88); assay: NanoBRET live-cell target engagement, CDK11A-NanoLuc/Cyclin L2 in HEK-293; format: binding; conditions: CDK11a/L2
T1 sequence (Q9UQ88 1-783): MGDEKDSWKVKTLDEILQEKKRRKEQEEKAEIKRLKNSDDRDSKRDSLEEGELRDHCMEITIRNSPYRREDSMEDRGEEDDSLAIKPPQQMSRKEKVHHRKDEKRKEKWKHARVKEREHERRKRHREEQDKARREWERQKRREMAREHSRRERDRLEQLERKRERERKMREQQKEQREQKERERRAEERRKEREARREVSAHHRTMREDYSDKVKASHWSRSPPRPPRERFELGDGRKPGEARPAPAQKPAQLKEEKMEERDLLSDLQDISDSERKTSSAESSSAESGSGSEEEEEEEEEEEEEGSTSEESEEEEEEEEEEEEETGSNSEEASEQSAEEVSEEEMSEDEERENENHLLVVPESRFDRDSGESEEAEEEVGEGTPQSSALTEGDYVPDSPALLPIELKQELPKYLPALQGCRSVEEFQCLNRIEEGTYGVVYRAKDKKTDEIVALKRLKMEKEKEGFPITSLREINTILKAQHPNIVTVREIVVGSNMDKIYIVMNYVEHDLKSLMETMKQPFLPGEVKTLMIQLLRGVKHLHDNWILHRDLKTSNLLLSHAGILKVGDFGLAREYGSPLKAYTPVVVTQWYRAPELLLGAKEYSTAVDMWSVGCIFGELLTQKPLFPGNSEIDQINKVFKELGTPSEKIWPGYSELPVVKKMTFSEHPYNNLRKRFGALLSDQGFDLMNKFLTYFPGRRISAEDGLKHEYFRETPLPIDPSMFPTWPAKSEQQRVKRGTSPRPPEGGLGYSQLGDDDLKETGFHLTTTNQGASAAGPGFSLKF

[7] = molecular target: CDK12/Cyclin K (Homo sapiens, UniProt Q9NYV4); assay: NanoBRET live-cell target engagement, CDK12-NanoLuc/Cyclin K in HEK-293; format: binding; conditions: CDK12/K
[8] = molecular target: CDK13/Cyclin K (Homo sapiens, UniProt Q14004); assay: NanoBRET live-cell target engagement, CDK13-NanoLuc/Cyclin K in HEK-293; format: binding; conditions: CDK13/K
[9] = molecular target: CDK10/Cyclin L2 (Homo sapiens, UniProt Q15131); assay: NanoBRET live-cell target engagement, CDK10-NanoLuc/Cyclin L2 in HEK-293; conditions: CDK10/L2
CDK10/Cyclin L2, sequence (Q15131 whole entry): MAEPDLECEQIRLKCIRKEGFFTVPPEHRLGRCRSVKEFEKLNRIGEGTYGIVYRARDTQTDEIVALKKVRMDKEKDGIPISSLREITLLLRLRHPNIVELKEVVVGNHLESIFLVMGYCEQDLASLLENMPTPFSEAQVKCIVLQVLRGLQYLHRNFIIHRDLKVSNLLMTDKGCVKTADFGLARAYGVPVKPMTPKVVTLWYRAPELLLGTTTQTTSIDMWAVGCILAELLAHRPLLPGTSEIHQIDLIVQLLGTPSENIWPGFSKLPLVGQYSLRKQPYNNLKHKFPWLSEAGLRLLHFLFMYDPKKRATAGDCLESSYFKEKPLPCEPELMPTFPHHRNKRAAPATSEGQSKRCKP

[10] = molecular target: CDK5/CDK5R1 (Homo sapiens, UniProt Q00535); assay: NanoBRET live-cell target engagement, CDK5-NanoLuc/CDK5R1 in HEK-293; format: binding; conditions: CDK5/CDK5R1
CDK5/CDK5R1, sequence (Q00535 whole entry): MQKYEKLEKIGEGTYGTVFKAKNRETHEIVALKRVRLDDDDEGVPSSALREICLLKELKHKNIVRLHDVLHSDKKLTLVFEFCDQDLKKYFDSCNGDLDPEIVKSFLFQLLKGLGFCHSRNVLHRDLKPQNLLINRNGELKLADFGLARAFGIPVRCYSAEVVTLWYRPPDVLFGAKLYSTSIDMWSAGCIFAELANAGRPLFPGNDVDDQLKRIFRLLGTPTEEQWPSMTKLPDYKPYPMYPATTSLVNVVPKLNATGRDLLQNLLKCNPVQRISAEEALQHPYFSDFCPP
CDK5/CDK5R1, sequence (Q15078 whole entry partner): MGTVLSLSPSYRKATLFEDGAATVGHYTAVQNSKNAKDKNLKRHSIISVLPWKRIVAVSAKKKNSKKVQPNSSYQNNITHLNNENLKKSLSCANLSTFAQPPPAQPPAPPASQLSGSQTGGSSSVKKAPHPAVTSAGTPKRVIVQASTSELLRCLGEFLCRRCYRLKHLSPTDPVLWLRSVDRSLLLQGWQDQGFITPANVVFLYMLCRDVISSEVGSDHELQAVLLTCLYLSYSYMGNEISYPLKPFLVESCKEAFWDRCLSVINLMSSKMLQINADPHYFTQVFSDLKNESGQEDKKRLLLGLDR

[11] = molecular target: CDK16/Cyclin Y (Homo sapiens, UniProt Q00536); assay: NanoBRET live-cell target engagement, CDK16-NanoLuc/Cyclin Y in HEK-293; format: binding; conditions: CDK16/Y; for IC50: read-out: IC50
CDK16/Cyclin Y, sequence (Q00536 whole entry): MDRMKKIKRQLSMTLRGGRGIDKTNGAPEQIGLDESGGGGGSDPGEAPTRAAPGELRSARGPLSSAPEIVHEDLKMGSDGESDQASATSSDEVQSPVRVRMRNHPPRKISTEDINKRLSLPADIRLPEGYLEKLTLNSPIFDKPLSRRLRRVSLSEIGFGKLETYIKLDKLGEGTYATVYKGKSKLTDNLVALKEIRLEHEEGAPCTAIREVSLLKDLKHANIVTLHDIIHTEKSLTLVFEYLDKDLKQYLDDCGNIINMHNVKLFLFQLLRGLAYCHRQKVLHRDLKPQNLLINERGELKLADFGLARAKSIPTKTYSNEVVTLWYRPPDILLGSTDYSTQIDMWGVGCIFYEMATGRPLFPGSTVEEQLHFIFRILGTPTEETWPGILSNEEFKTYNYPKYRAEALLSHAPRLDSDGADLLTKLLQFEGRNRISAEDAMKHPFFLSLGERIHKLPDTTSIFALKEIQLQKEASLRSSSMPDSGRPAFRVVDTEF
CDK16/Cyclin Y, sequence (Q8ND76 whole entry partner): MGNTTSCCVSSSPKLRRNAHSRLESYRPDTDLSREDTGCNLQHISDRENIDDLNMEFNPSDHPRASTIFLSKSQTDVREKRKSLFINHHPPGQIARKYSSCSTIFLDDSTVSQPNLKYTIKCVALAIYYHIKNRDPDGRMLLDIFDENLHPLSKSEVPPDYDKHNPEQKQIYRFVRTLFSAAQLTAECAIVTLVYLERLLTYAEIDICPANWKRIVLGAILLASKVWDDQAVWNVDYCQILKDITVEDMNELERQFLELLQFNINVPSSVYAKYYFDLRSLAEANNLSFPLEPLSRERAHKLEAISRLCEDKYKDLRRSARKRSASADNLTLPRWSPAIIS

[12] = molecular target: CDK18/Cyclin Y (Homo sapiens, UniProt Q07002); assay: NanoBRET live-cell target engagement, CDK18-NanoLuc/Cyclin Y in HEK-293; format: binding; conditions: CDK18/Y
[13] = molecular target: CDK14/Cyclin Y (Homo sapiens, UniProt O94921); assay: NanoBRET live-cell target engagement, CDK14-NanoLuc/Cyclin Y in HEK-293; format: binding; conditions: CDK14/Y; for IC50: read-out: IC50
[14] = molecular target: CDK20/Cyclin H (Homo sapiens, UniProt Q8IZL9); assay: NanoBRET live-cell target engagement, NanoLuc-CDK20/Cyclin H in HEK-293; format: binding; conditions: CDK20/H
[15] = molecular target: CDK6/Cyclin D1 (Homo sapiens, UniProt Q00534); assay: NanoBRET live-cell target engagement, NanoLuc-CDK6/Cyclin D1 in HEK-293; format: binding; conditions: CDK6/D1; for IC50: read-out: IC50
CDK6/Cyclin D1, sequence (Q00534 whole entry): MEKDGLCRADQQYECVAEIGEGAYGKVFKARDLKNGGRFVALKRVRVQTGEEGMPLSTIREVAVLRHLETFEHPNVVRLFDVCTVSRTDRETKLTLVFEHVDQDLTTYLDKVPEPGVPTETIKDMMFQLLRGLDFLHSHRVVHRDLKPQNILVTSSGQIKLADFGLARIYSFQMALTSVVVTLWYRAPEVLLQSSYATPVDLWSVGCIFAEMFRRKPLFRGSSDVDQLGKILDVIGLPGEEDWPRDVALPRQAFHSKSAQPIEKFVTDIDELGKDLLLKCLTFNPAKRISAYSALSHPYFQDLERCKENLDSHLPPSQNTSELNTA
CDK6/Cyclin D1, sequence (P24385 whole entry partner): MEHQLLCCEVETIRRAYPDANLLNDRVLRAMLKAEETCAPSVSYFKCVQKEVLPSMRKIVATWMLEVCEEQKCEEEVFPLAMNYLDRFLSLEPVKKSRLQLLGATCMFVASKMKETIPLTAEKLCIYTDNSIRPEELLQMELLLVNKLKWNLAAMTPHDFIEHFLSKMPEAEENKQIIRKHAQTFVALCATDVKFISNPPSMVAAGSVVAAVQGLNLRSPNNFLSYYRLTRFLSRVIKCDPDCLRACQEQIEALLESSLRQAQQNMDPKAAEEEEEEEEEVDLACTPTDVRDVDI

[16] = molecular target: CDK11B/Cyclin L2 (Homo sapiens, UniProt P21127); assay: NanoBRET live-cell target engagement, CDK11B-NanoLuc/Cyclin L2 in HEK-293; format: binding; conditions: CDK11b/L2
[17] = molecular target: CDK3/Cyclin E1 (Homo sapiens, UniProt Q00526); assay: NanoBRET live-cell target engagement, CDK3-NanoLuc/Cyclin E1 in HEK-293; format: binding; conditions: CDK3/E1
CDK3/Cyclin E1, sequence (Q00526 whole entry): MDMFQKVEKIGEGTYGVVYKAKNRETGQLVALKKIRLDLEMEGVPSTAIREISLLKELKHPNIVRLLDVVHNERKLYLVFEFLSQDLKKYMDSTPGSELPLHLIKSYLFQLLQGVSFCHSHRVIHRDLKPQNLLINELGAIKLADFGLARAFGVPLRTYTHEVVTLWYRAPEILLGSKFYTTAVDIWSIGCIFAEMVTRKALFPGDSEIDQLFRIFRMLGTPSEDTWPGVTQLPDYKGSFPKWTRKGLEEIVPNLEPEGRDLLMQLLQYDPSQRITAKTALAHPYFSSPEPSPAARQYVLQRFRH
CDK3/Cyclin E1, sequence (P24864 whole entry partner): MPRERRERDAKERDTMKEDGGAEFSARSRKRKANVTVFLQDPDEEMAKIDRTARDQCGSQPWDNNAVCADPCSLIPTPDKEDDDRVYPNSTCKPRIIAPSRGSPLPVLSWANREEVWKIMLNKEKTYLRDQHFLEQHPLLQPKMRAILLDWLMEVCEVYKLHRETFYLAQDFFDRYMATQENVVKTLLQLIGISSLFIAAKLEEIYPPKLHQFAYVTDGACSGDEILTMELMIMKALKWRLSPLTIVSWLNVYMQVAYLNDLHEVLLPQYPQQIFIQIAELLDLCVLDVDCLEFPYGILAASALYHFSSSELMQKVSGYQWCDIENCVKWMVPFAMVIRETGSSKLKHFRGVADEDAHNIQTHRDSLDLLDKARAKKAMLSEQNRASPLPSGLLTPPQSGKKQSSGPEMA

CDK15/Cyclin Y, sequence (Q96Q40 whole entry): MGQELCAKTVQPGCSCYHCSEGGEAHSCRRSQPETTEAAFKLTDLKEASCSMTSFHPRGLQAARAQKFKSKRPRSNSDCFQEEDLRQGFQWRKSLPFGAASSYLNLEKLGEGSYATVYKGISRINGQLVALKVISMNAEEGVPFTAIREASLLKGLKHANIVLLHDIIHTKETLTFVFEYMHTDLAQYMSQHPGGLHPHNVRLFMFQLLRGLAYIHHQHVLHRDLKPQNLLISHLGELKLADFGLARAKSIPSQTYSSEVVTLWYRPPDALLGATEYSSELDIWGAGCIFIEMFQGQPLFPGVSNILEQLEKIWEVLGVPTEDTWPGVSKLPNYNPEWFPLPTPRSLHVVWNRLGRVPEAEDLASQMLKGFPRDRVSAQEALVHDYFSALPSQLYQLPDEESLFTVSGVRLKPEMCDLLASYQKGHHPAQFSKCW
CDK15/Cyclin Y, sequence (Q8ND76 whole entry partner): as the sequence (Q8ND76 whole entry partner) above

In the case of `CNc1nc(C)c(-c2nc(Nc3cccc(S(N)(=O)=O)c3)ncc2F)s1` [CDKI-73], the “Inhibition at 10µM (%)” value ([1]; average) is reported as 92.4%, the IC50 ([1]; average (± SEM where n=3)) is reported as 80 nM and the “Inhibition at 10µM (%)” value ([1]; experiment 1) is reported as 92.6%. For the same compound, the IC50 ([1]; experiment 1) was 107 nM, the “Inhibition at 10µM (%)” value ([1]; experiment 2) was 92.2% and the IC50 ([1]; experiment 2) was 54 nM. For the same compound, the “Inhibition at 10µM (%)” value ([2]; average) was 93.8%, the IC50 ([2]; average (± SEM where n=3)) was 12 nM and the “Inhibition at 10µM (%)” value ([2]; experiment 1) was 99.0%. The IC50 ([2]; experiment 1) was 13 nM, the “Inhibition at 10µM (%)” value ([2]; experiment 2) was 88.5% and the IC50 ([2]; experiment 2) was 11 nM. The “Inhibition at 10µM (%)” value ([3]; average) was 89.5%, the “Inhibition at 10µM (%)” value ([3]; experiment 1) was 81.5% and the “Inhibition at 10µM (%)” value ([3]; experiment 2) was 97.4%. For the same compound, the “Inhibition at 10µM (%)” value ([4]; CDK19/C, average) was 79.0%, the IC50 ([4]; CDK19/C, experiment 1) was 507 nM and the “Inhibition at 10µM (%)” value ([4]; CDK19/C, experiment 1) was 76.8%. For the same compound, the IC50 ([4]; CDK19/C, experiment 2) was 120 nM, the “Inhibition at 10µM (%)” value ([4]; CDK19/C, experiment 2) was 81.3% and the IC50 ([4]; CDK19/Y (so in the source), average (± SEM where n=3)) was 310 nM. For the same compound, the “Inhibition at 10µM (%)” value ([5]; average) was 92.2%, the IC50 ([5]; average (± SEM where n=3)) was 8.3 nM and the “Inhibition at 10µM (%)” value ([5]; experiment 1) was 92.4%. For the same compound, the IC50 ([5]; experiment 1) was 7.8 nM, the “Inhibition at 10µM (%)” value ([5]; experiment 2) was 92.0% and the IC50 ([5]; experiment 2) was 8.8 nM. The “Inhibition at 10µM (%)” value ([6]; average) was 42.8%, the “Inhibition at 10µM (%)” value ([6]; experiment 1) was 32.6% and the “Inhibition at 10µM (%)” value ([6]; experiment 2) was 53.0%. For the same compound, the “Inhibition at 10µM (%)” value ([7]; average) was 42.5%, the “Inhibition at 10µM (%)” value ([7]; experiment 1) was 31.7% and the “Inhibition at 10µM (%)” value ([7]; experiment 2) was 53.2%. The “Inhibition at 10µM (%)” value ([8]; average) was 37.1%, the “Inhibition at 10µM (%)” value ([8]; experiment 1) was 35.9% and the “Inhibition at 10µM (%)” value ([8]; experiment 2) was 38.4%. For the same compound, the “Inhibition at 10µM (%)” value ([9]; average) was 40.1%, the “Inhibition at 10µM (%)” value ([9]; experiment 1) was 36.9% and the “Inhibition at 10µM (%)” value ([9]; experiment 2) was 43.3%. The “Inhibition at 10µM (%)” value ([10]; average) was 90.6%, the “Inhibition at 10µM (%)” value ([10]; experiment 1) was 88.4% and the “Inhibition at 10µM (%)” value ([10]; experiment 2) was 92.7%. For the same compound, the IC50 ([11]; average (± SEM where n=3)) was 4.1 nM, the “Inhibition at 10µM (%)” value ([11]; experiment 1) was 92.7% and the IC50 ([11]; experiment 1) was 3.2 nM. For the same compound, the “Inhibition at 10µM (%)” value ([11]; experiment 2) was 92.0%, the IC50 ([11]; experiment 2) was 4.9 nM and the “Inhibition at 10µM (%)” value ([12]; experiment 1) was 95.5%. For the same compound, the “Inhibition at 10µM (%)” value ([12]; experiment 2) was 102.2%, the “Inhibition at 10µM (%)” value ([13]; average) was 92.7% and the IC50 ([13]; average (± SEM where n=3)) was 48 nM. The “Inhibition at 10µM (%)” value ([13]; experiment 1) was 93.7%, the IC50 ([13]; experiment 1) was 59 nM and the “Inhibition at 10µM (%)” value ([13]; experiment 2) was 91.8%. For the same compound, the IC50 ([13]; experiment 2) was 37 nM, the “Inhibition at 10µM (%)” value ([14]; experiment 1) was 73.0% and the “Inhibition at 10µM (%)” value ([14]; experiment 2) was 44.8%. For the same compound, the “Inhibition at 10µM (%)” value ([15]; average) was 99.1%, the IC50 ([15]; average (± SEM where n=3)) was 14 nM and the “Inhibition at 10µM (%)” value ([15]; experiment 1) was 98.8%. For the same compound, the IC50 ([15]; experiment 1) was 22 nM, the “Inhibition at 10µM (%)” value ([15]; experiment 2) was 99.3% and the IC50 ([15]; experiment 2) was 6.6 nM. For the same compound, the “Inhibition at 10µM (%)” value ([16]; average) was 50.2%, the “Inhibition at 10µM (%)” value ([16]; experiment 1) was 41.6% and the “Inhibition at 10µM (%)” value ([16]; experiment 2) was 58.7%. The “Inhibition at 10µM (%)” value ([17]; average) was 97.0%, the “Inhibition at 10µM (%)” value ([17]; experiment 1) was 94.8% and the “Inhibition at 10µM (%)” value ([17]; experiment 2) was 99.2%.
